{
  "source": "patent US11466047B2",
  "about": "“Cyclic di-nucleotide compounds as sting agonists” (Merck Sharp & Dohme Corp., priority 2017, dated 2022)",
  "key": {"full-length WT STING": {"biological_target": "full-length WT STING (Homo sapiens (Human), UniProt Q86WV6, H232R)", "sequence (Q86WV6 whole entry, looked up, stated change not applied)": "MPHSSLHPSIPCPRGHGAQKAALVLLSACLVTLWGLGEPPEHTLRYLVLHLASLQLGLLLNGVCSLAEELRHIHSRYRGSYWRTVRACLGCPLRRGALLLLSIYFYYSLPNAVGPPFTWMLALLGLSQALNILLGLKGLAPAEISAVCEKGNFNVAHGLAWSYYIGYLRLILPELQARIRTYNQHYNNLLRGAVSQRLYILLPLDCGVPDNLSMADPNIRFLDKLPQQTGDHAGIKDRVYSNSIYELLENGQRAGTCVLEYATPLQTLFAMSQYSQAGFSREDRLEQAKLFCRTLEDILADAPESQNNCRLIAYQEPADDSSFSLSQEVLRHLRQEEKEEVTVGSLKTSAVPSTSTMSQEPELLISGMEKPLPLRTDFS", "experiment": "3H-cGAMP filtration binding assay (WT STING)", "details": "WT STING membrane", "description": "(§1) The ability of compounds to bind STING is quantified by their ability to compete with tritiated cGAMP ligand for human STING receptor membrane using a radioactive filter-binding assay. The binding assay employs STING receptor obtained from Trichoplusia ni cell membranes (T.ni; Expression Systems, cat #94-002F, overexpressing full-length WT STING and tritiated cGAMP ligand.\nThe basic WT STING filtration assay protocol is as follows:\n16 nM of [^3H] c-GAMP ligand was prepared by diluting into assay buffer, and 50 uL of this working stock was manually added to each well of the assay plate. After ligand addition, 2 uL of either titrated test compound, DMSO control (Sigma #276855), or cold cGAMP control was added to the appropriate wells using a BIOMEK FX. The serially titrated compound was prepared on a Hamilton STARPlus CORE in a 96-well plate (Greiner, #651201) using a 1:3 ten-point dose response format. Following compound addition, a 2.2 ug/ml working concentration of STING membrane (SEQ. ID. No. 3) was prepared by diluting concentrated membrane into assay buffer (1×PBS; Invitrogen #SH30028.02) and douncing 7× using a manual tissue homogenizer (Wheaton, #357546). 148 uL of this prepared membrane was then manually added to each well of a 96-well deep-well polypropylene plate (Fisher Scientific, #12-566-121). Compound, ligand, and membrane then incubated for 60 min at RT before the contents of each assay plate were filtered through a 96-well GF/B filter plate (PerkinElmer, #6005250) using a TOMTEC MACH III Cell Harvester equipped with 20 mM HEPES buffer (Fisher Scientific, #BP299500). The filter plates were then dried at 55° C. for 30 min using a pressurized VWR oven before 30 uL of ULTIMA GOLD F scintillate was added to each well. Tritium levels for each reaction well were then measured using a PerkinElmer TopCount plate reader.\n(§2) After normalization to controls, the percent activity for each compound concentration was calculated by measuring the amount of remaining radioactivity. The plot of percent activity versus the log of compound concentration was fit with a 4-parameter dose response equation to calculate EC50 values."}, "THP1 cells": {"tested_on": "THP1 cells", "experiment": "IFN-β secretion in THP1 cell culture (5 h)", "type": "cell-based, human", "details": "Homo sapiens, THP-1, 5 h, 30 μM compound, relative to 2′3′-cGAMP at 30 μM, read-out: % Effect at 30 μM relative to 2′3′-cGAMP", "description": "The ability of compounds to stimulate the secretion of interferon-beta from THP1 cells was measured using a human IFN-β AlphaLISA kit (Perkin Elmer, Cat. No. AL265F). The basic protocol is as follows:\nA Labcyte Echo 550 acoustic dispenser was used to transfer 120 nL of compound dissolved in DMSO into the wells of an empty, sterile 384-well microplate, (Corning, Cat. No. 3712). THP1 cells (American Type Culture Collection, Cat. No. TIB202) previously frozen in Recovery Medium (Life Technologies, Cat. No. 12648-010) were thawed and immediately diluted 10-fold into 37° C. assay medium (RPMI 1640+L-Glutamine & phenol red, Life Technologies, Cat. No. 11875-085; 0.5% heat inactivated fetal bovine serum, Sigma Aldrich, Cat. No. F4135; 1 mM Sodium Pyruvate, Life Technologies, Cat. No. 11360-070; lx non-essential amino acids; Life Technologies, Cat. No. 11140-050). The cell viability and count was ascertained using a Beckman Coulter V-Cell XR cell counter. The cell suspension was centrifuged at 200×g for 5 min at RT. Cells were resuspended to a density of 0.8×10^6/mL in 37° C. assay medium. Subsequent liquid transfers were performed using either a Matrix electronic multichannel pipette or an Agilent Bravo Automated Liquid Handling Platform.\nThe assay was started by dispensing 40 μL of the previously prepared cell suspension into the wells of the plate containing compounds. After 5 h incubation at 37° C., 5% CO2 in a humidified atmosphere, the plate of cells and compounds was centrifuged at 200×g for 5 min at RT. From each well, 5 μL of supernatant was transferred into corresponding wells of a white 384-well plate (Perkin Elmer, Cat. No. 6005620). To these supernatant-containing wells was added 10 μL of 5× Anti-Analyte Acceptor beads (50 μg/mL of AlphaLISA HiBlock Buffer) and incubated for 30 min at RT while shaking on an orbital plate shaker. To each well was added 10 μL of 5× Biotinylated Antibody Anti-analyte (5 nM in AlphaLISA HiBlock Buffer) and incubated on an orbital plate shaker for 60 min at RT or overnight at 4° C. To each well was added 25 μL of 2×SA-Donor beads (80 μg/mL in AlphaLISA HiBlock Buffer) and incubated for 30-45 min at RT in the dark while shaking on an orbital plate shaker. The plate was then read on a Perkin Elmer Envision (λex=680 nm, λem=570 nm). The percent effect of the AlphaLISA signal at each compound concentration was calculated based on 30 uM cGAMP positive controls and 0.3% DMSO negative controls. The plot of percent effect versus the log of compound concentration was fit with a 4-parameter concentration response equation to calculate EC50 values. The test compounds were tested at concentrations 30000, 10000, 3333, 1111, 370.4, 123.4, 41.2, 13.7, 4.6, and 1.5 nM with 0.3% residual DMSO. The control compound, cGAMP was tested at concentrations 100000, 33333, 11111, 3704, 1235, 412, 137, 46, and 15 nM with 0.3% residual DMSO.\nCompounds of the disclosure were evaluated for IFN-β secretion in THP1 cell culture as described above. The following table tabulates the biological data for these compounds as percent activation relative to 2′3′-cGAMP at the 30 μM concentration."}, "full-length HAQ STING": {"biological_target": "full-length HAQ STING (Homo sapiens (Human), UniProt Q86WV6, G230A/H232R/R293Q/R71H)", "sequence (Q86WV6 whole entry, looked up, stated change not applied)": "as above", "experiment": "3H-cGAMP filtration binding assay (HAQ STING)", "details": "competition with tritiated cGAMP ligand, HAQ STING membrane", "from_the_text": "The ability of compounds to bind STING is quantified by the ability to compete with tritiated cGAMP ligand for human STING receptor membrane using a radioactive filter-binding assay. The binding assay employs STING receptor obtained from Hi-Five cell membranes overexpressing full-length HAQ STING prepared in-house and tritiated cGAMP ligand also purified in-house.\nas §1, with “#94-002F, www.expressionsystems.com)” for “#94-002F,”, “HAQ” for “WT”\nThe basic HAQ STING filtration assay protocol is as follows:\nThe compounds were serially titrated by the Hamilton STARPlus CORE in a 96-well plate (Greiner, #651201) using a 1:3 ten-point dose response format. After compound preparation, a 2.2 ug/ml working concentration of STING membrane (SEQ. ID. No. 1) was prepared by diluting concentrated membrane into assay buffer (lx PBS; Invitrogen #SH30028.02) and douncing 7× using a manual tissue homogenizer (Wheaton, #357546). 148 uL of prepared membrane was then manually added to each well of a 96-well deep-well polypropylene plate (Fisher Scientific, #12-566-121). Following membrane addition, 2 uL of either titrated test compound, DMSO control (Sigma #276855), or cold cGAMP control was added to the appropriate wells using a BIOMEK FX. Compound and membrane then preincubated for 60 min at RT to allow compound binding to equilibrate. Following equilibration, 8 nM of [^3H]c-GAMP ligand was prepared by diluting into assay buffer, and 50 uL of this working stock was then manually added to each well of the assay plate. Plates were then incubated at RT for 60 min, and the contents of each assay plate were then filtered through a 96-well GF/B filter plate (PerkinElmer, #6005250) using a TOMTEC MACH III Cell Harvester equipped with 20 mM HEPES buffer (Fisher Scientific, #BP299500). The filter plates were then dried at 55° C. for 30 min using a pressurized oven before 30 uL of ULTIMA GOLD F scintillate was added to each well. Tritium levels for each reaction well were then measured using a PerkinElmer TopCount plate reader.\nas §2"}, "[1]": {"details": "competition with tritiated cGAMP ligand, read-out: EC50"}},
  "note": "Read-outs that look alike come from different tables or passages of the source.",
  "data": [
    {"smiles": "Nc1nc2c(ncn2[C@@H]2S[C@@H]3COP(=S)(S)O[C@H]4[C@H](F)[C@H](n5cnc6c(N)ncnc65)O[C@@H]4COP(=O)(O)O[C@@H]2[C@@H]3O)c(=O)[nH]1", "note": "(stereo partly drawn) [Example 20, 2-amino-9-[(5R,7R,8R,12aR,14R,15S,15aR,16S)-14-(6-amino-9H-purin-9-yl)-15-fluoro-10,16-dihydroxy-10-oxido-2-sulfanyl-2-sulfidooctahydro-12H-5,8-methanofuro[3,2-l][1,3,9,11,6,2,10]tetraoxathiadiphosphacyclotetradecin-7-yl]-1,9-dihydro-6H-purin-6-one]", "values": [
      {"measurement": "EC50", "setting": "full-length WT STING; [1]", "result": 3, "unit": "nM"},
      {"measurement": "activation at 30 µM", "setting": "THP1 cells", "result": 137, "unit": "%"},
      {"measurement": "EC50", "setting": "full-length HAQ STING", "result": 1, "unit": "nM"}
    ]},
    {"smiles": "Nc1nc2c(ncn2[C@@H]2O[C@@H]3COP(=S)(S)O[C@H]4[C@H]5OC[C@]4(COP(O)(=S)O[C@@H]2[C@H]3F)O[C@H]5n2cnc3c(N)ncnc32)c(=O)[nH]1", "note": "(stereo partly drawn) [Example 9, 2-amino-9-[(5R,7R,8S,12aR,14R,15R, 15aS,18S)-14-(6-amino-9H-purin-9-yl)-18-fluoro-10-hydroxy-2-sulfanyl-2,10-disulfidohexahydro-14H-15,12a-(epoxymethano)-5,8-methanofuro[3,2-1][1,3,6,9,11,2,10]pentaoxadiphosphacyclotetradecin-7(12H)-yl]-1,9-dihydro-6H-purin-6-one]", "values": [
      {"measurement": "EC50", "setting": "full-length WT STING; [1]", "result": 4390, "unit": "nM"},
      {"measurement": "activation at 30 µM", "setting": "THP1 cells", "result": 26, "unit": "%"},
      {"measurement": "EC50", "setting": "full-length HAQ STING", "result": 349, "unit": "nM"}
    ]},
    {"smiles": "Nc1nc2c(ncn2[C@@H]2O[C@@H]3COP(=S)(S)O[C@H]4[C@H](F)[C@H](n5cnc6c(N)ncnc65)O[C@@H]4COP(O)(=S)O[C@@H]2[C@@H]3F)c(=O)[nH]1", "note": "(single isomer, unassigned) [Example 1]", "values": [
      {"measurement": "EC50", "setting": "full-length WT STING; EC50, competition with tritiated cGAMP ligand", "result": "< 1", "unit": "nM"},
      {"measurement": "activation at 30 µM", "setting": "THP1 cells", "result": 165, "unit": "%"},
      {"measurement": "EC50", "setting": "full-length HAQ STING", "result": "< 1", "unit": "nM"}
    ]}
  ]
}
